Measured values taken from US11450448B2, “Use of a linear octafluorobutene as a dielectric compound in an environmentally safe dielectric-insulation or arc-extinction fluid” (HITACHI ENERGY SWITZERLAND AG, priority 2016, dated 2022).

Columns and labels:
[1] = Decomposition tests: accelerated ageing with GIS materials; format: physicochemical; conditions: aged at 100° C. with Cu/Al plates, EPDM sealings, zeolites, SiO2, paints, grease, nitrile-butadiene rubber; analysed after 8 weeks of exposure
Protocol: In order to assess the material compatibility of octafluoro-2-butene towards material typically used in a GIS, the following components were aged at accelerated conditions (at 100° C.) with octafluoro-2-butene gas:
Both the gas as well as the components exposed to the gas were analysed after 8 weeks of exposure.

rats = test: median lethal concentration (LC50) measured on rats; format: in vivo; conditions: compared with C4N and C5K
Text: Specifically, the term “environmentally safe” also means that the dielectric-insulation or arc-extinction fluid has a relatively low toxicity level. More specifically, the median lethal dose (LC50; lethal concentration 50%; measured on rats) of the dielectric compound used in the environmentally safe dielectric-insulation or arc-extinction fluid is higher than 4′000 ppm, preferably higher than 5′000 ppm and more preferably higher than 6′000 ppm. Thus, the dielectric compound used according to the present invention ranges within the same toxicity class as previously mentioned C4N (having a much higher GWP than the dielectric compound used according to the present invention) and C5K (having a much higher boiling point than the dielectric compound used according to the present invention).

| Molecule | decomposition of the gas [1] | toxicity class (rats) |
| --- | --- | --- |
| FC(=C(F)C(F)(F)F)C(F)(F)F [octafluoro-2-butene] | For none of the tests, a decomposition of the octafluoro-2-butene was determined | – |
| linear octafluorobutene [linear octafluorobutenes] | – | ranges within the same toxicity class as for example heptafluoroisobutyronitrile (C4N) and 1,1,1,3,4,4,4-heptafluoro-3-(trifluoromethyl)-butan-2-one (C5K) |
